# Measured values as given in patent US20050147754A1, “Zirconium complex useful in a CVD method and a thin film preparation method using the complex” (Saes Getters S.p.A., priority 2002, published 2005).
# Experiment: TG-DTA in dry air versus argon gas (oxidative degradation)
# Conditions: onset of caloric value difference between dry air and argon gas, dDTA/dT, FIG. 3(b)
structure (smiles),measurement,value
"CC(C)(C)C(=O)C=C(O)C(C)(C)C.CC(C)(C)C(=O)C=C(O)C(C)(C)C.CC(C)(C)C(=O)C=C(O)C(C)(C)C.CC(C)(C)C(=O)C=C(O)C(C)(C)C.[Zr] [Zr(DPM)4, zirconium tetrakis[dipivaloylmethanate]]",temperature at which oxidation reaction occurred,about 280 °C
"CC(C)C(=O)C=C([O][Zr]([O]C(=CC(=O)C(C)C)C(C)C)([O]C(=CC(=O)C(C)C)C(C)C)[O]C(=CC(=O)C(C)C)C(C)C)C(C)C [Zr(DIBM)4, zirconium tetrakis[diisobutyrylmethanate]]",temperature at which oxidation reaction occurred,about 130 °C
